Results as given in patent US20230266302A1, “SYNTHESIS AND USE OF N-BENZYL SULFONAMIDES” (THE UNIVERSITY OF TULSA, priority 2020, published 2023).

What was measured:
Assay in all cases: ATP level assay (CellTiter-Glo), percent of control
Format in all cases: cell-based
SkBr3 (breast cancer) = details: two hour incubation; for activity at 100 µM: Homo sapiens, SK-BR-3, 2 h, compound alone, control DMSO, read-out: POC (percent of control) SkBr3
NCI-H196 (lung cancer) = details: two hour incubation; for activity at 100 µM: NCI-H196, 2 h, compound alone, control DMSO, read-out: POC (percent of control) NCI-H196
[1] = system: MCF10A (non-cancerous breast); details: two hour incubation; for activity at 100 µM: Homo sapiens, MCF-10A, 2 h, compound alone, control DMSO, read-out: POC (percent of control) MCF10A
MDA-MB (breast cancer) = details: two hour incubation; for activity at 100 µM: 2 h, compound alone, control DMSO, read-out: POC (percent of control) MDA-MB
MCF7 (breast cancer) = details: two hour incubation; for activity at 100 µM: Homo sapiens, MCF7, 2 h, compound alone, control DMSO, read-out: POC (percent of control) MCF7
PC3 (prostate cancer) = details: two hour incubation; for activity at 100 µM: 2 h, compound alone, control DMSO, read-out: POC (percent of control) PC3
H293 (kidney cancer) = details: two hour incubation; for activity at 100 µM: 2 h, compound alone, control DMSO, read-out: POC (percent of control) H293
HDF (normal cells) = details: two hour incubation; for activity at 100 µM: 2 h, compound alone, control DMSO, read-out: POC (percent of control) HDF
[2] = system: BxPC3 (pancreatic cancer); details: two hour incubation; for activity at 100 µM: Homo sapiens, BXPC-3, 2 h, compound alone, control DMSO, read-out: POC (percent of control) BxPC3
T47D (breast cancer) = details: two hour incubation; for activity at 100 µM: Homo sapiens, T47D, 2 h, compound alone, control DMSO, read-out: POC (percent of control) T47D
HeLa (cervical cancer) = details: two hour incubation; for activity at 100 µM: Homo sapiens, HeLa, 2 h, compound alone, control DMSO, read-out: POC (percent of control) HeLa
[3] = compound 100 uM + 2DG (about 10-20 mM)
[4] = compound 100 uM + rotenone (approximately 1.25 μM)

Row | SMILES | activity at 100 µM (SkBr3 (breast cancer)) | POC (percent of control) SkBr3 (SkBr3 (breast cancer); [3]) | POC (percent of control) SkBr3 (SkBr3 (breast cancer); [4]) | activity at 100 µM (NCI-H196 (lung cancer)) | POC (percent of control) NCI-H196 (NCI-H196 (lung cancer); [3]) | POC (percent of control) NCI-H196 (NCI-H196 (lung cancer); [4]) | activity at 100 µM [1] | POC (percent of control) MCF10A [1, 3] | POC (percent of control) MCF10A [1, 4] | activity at 100 µM (MDA-MB (breast cancer)) | POC (percent of control) MDA-MB (MDA-MB (breast cancer); [3]) | POC (percent of control) MDA-MB (MDA-MB (breast cancer); [4]) | activity at 100 µM (MCF7 (breast cancer)) | POC (percent of control) MCF7 (MCF7 (breast cancer); [3]) | POC (percent of control) MCF7 (MCF7 (breast cancer); [4]) | activity at 100 µM (PC3 (prostate cancer)) | POC (percent of control) PC3 (PC3 (prostate cancer); [3]) | POC (percent of control) PC3 (PC3 (prostate cancer); [4]) | activity at 100 µM (H293 (kidney cancer)) | POC (percent of control) H293 (H293 (kidney cancer); [3]) | further results
1 | O=S(=O)(NCc1c[nH]c2cccc(Br)c12)c1ccc(Cl)cc1 [Compound 27, N-[(4-bromo-1H-indol-3-yl)methyl]-4-chlorobenzenesulfonamide] | 95.6% | 62.4% of control | 66% of control | 150% | 117.2% of control | 16.7% of control | 58.9% | 27.1% of control | 30.2% of control | 62.6% | 27.3% of control | 37.3% of control | 82.9% | 50.2% of control | 61.1% of control | 43.1% | 15.2% of control | 27.2% of control | 67% | 30.4% of control | POC (percent of control) H293 (H293 (kidney cancer); [4]): 27.3% of control; activity at 100 µM (HDF (normal cells)): 65%; POC (percent of control) HDF (HDF (normal cells); [3]): 38% of control; POC (percent of control) HDF (HDF (normal cells); [4]): 66.6% of control; activity at 100 µM [2]: 42.8%; POC (percent of control) BxPC3 [2, 3]: 14.2% of control; POC (percent of control) BxPC3 [2, 4]: 15.8% of control; activity at 100 µM (T47D (breast cancer)): 33.9%; POC (percent of control) T47D (T47D (breast cancer); [3]): 103.1% of control; POC (percent of control) T47D (T47D (breast cancer); [4]): 103.8% of control; activity at 100 µM (HeLa (cervical cancer)): 58.3%; POC (percent of control) HeLa (HeLa (cervical cancer); [3]): 104.3% of control; POC (percent of control) HeLa (HeLa (cervical cancer); [4]): 73.3% of control
2 | Cc1cccc2c(CNS(=O)(=O)c3ccc(Cl)cc3)c[nH]c12 [Compound 28, 4-chloro-N-[(7-methyl-1H-indol-3-yl)methyl]benzenesulfonamide] | 102% | 79.6% of control | 87.3% of control | 129% | 40.4% of control | 60.6% of control | 72.8% | 29.5% of control | 81.1% of control | 77.4% | 45.5% of control | 78.1% of control | 79% | 60.7% of control | 53.5% of control | 31.8% | 56.5% of control | 64.8% of control | 43.2% | 49% of control | POC (percent of control) H293 (H293 (kidney cancer); [4]): 43.3% of control; activity at 100 µM (HDF (normal cells)): 74.9%; POC (percent of control) HDF (HDF (normal cells); [3]): 56.1% of control; POC (percent of control) HDF (HDF (normal cells); [4]): 62.2% of control; activity at 100 µM [2]: 40.4%; POC (percent of control) BxPC3 [2, 3]: 41.8% of control; POC (percent of control) BxPC3 [2, 4]: 44.6% of control; activity at 100 µM (T47D (breast cancer)): 66.1%; POC (percent of control) T47D (T47D (breast cancer); [3]): 33.7% of control; POC (percent of control) T47D (T47D (breast cancer); [4]): 62.2% of control; activity at 100 µM (HeLa (cervical cancer)): 57.7%; POC (percent of control) HeLa (HeLa (cervical cancer); [3]): 65.6% of control; POC (percent of control) HeLa (HeLa (cervical cancer); [4]): 96.1% of control
3 | Cn1cc(CNS(=O)(=O)c2ccc(Cl)cc2)c2ccccc21 [Compound 29, 4-chloro-N-[(1-methyl-1H-indol-3-yl)methyl]benzenesulfonamide] | 102% | 72.5% of control | 78.6% of control | 192% | 51.3% of control | 100.3% of control | 78.9% | 46.2% of control | 62.7% of control | 81.1% | 64.7% of control | 69.7% of control | 105% | 90.9% of control | 98% of control | 77.8% | 67.5% of control | 67% of control | 91.2% | 55% of control | POC (percent of control) H293 (H293 (kidney cancer); [4]): 50.5% of control; activity at 100 µM (HDF (normal cells)): 95.8%; POC (percent of control) HDF (HDF (normal cells); [3]): 73% of control; POC (percent of control) HDF (HDF (normal cells); [4]): 81.5% of control; activity at 100 µM [2]: 80.8%; POC (percent of control) BxPC3 [2, 3]: 51.7% of control; POC (percent of control) BxPC3 [2, 4]: 52.7% of control; activity at 100 µM (T47D (breast cancer)): 90%; POC (percent of control) T47D (T47D (breast cancer); [3]): 60.7% of control; POC (percent of control) T47D (T47D (breast cancer); [4]): 77.6% of control; activity at 100 µM (HeLa (cervical cancer)): 80.9%; POC (percent of control) HeLa (HeLa (cervical cancer); [3]): 83.9% of control; POC (percent of control) HeLa (HeLa (cervical cancer); [4]): 93.1% of control
4 | Cc1cccc2[nH]cc(CNS(=O)(=O)c3ccc(Cl)cc3)c12 [Compound 30, 4-chloro-N-[(4-methyl-1H-indol-3-yl)methyl]benzenesulfonamide] | 64.1% | 41.3% of control | 58.2% of control | 48% | 18.7% of control | 18.4% of control | 30% | 8.4% of control | 34.6% of control | 38.6% | 41.5% of control | 48.3% of control | 37.4% | 11.3% of control | 36% of control | 7.1% | 10.6% of control | 21.7% of control | 14% | 12.8% of control | POC (percent of control) H293 (H293 (kidney cancer); [4]): 9.5% of control; activity at 100 µM (HDF (normal cells)): 28.2%; POC (percent of control) HDF (HDF (normal cells); [3]): 28.4% of control; POC (percent of control) HDF (HDF (normal cells); [4]): 66.2% of control; activity at 100 µM [2]: 15.8%; POC (percent of control) BxPC3 [2, 3]: 6.3% of control; POC (percent of control) BxPC3 [2, 4]: 45.7% of control; activity at 100 µM (T47D (breast cancer)): 16.1%; POC (percent of control) T47D (T47D (breast cancer); [3]): 13.2% of control; POC (percent of control) T47D (T47D (breast cancer); [4]): 28% of control; activity at 100 µM (HeLa (cervical cancer)): 28.5%; POC (percent of control) HeLa (HeLa (cervical cancer); [3]): 17.8% of control; POC (percent of control) HeLa (HeLa (cervical cancer); [4]): 58.4% of control
